Data on one substance can be found in doi:10.1101/2024.12.25.630315 (bioRxiv, 2024).

One assay has as its target T1, Nectin-4 (Homo sapiens, UniProt Q96NY8).
T1 construct: host or cells: HT1376, SCaBER, T24, RT112, UC9, UC14 urothelial carcinoma cells; HT1376 xenografts in NSG mice
T1 sequence (Q96NY8 32-510): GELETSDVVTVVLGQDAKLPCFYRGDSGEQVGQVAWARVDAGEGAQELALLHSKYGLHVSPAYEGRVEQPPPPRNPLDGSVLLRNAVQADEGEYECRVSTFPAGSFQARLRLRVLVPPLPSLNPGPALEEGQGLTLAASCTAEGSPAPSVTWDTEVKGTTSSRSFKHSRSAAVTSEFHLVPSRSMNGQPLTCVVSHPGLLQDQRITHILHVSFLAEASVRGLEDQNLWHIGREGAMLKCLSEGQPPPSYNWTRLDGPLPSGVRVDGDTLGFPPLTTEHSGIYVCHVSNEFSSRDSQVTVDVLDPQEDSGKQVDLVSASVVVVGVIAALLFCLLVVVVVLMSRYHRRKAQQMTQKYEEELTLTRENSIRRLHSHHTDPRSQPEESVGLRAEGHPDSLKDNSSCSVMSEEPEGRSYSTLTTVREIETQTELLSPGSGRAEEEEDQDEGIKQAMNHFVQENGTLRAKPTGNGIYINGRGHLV
Put plainly: In vivo Nectin-4 engagement by EV, SCaBER tumors (ex vivo biodistribution of [^68Ga]AJ647). Further details: species or system mouse. To be noted: NSG mice, single i.v. dose of EV (15 mg/kg in text, 20 mpk in legend/methods) 24 hours before tracer, ex vivo biodistribution 60 min, n=5, P < 0.001. The method, then:
To validate imaging studies, ex vivo biodistribution studies were conducted in mice with tumors of size 100–200 mm^3. Mice received ~50 μCi (1.85 MBq) of [^68Ga]AJ647 in […] of 5% ethanol in saline intravenously and mice were sacrificed at 5–180 min after [^68Ga]AJ647 injection for pharmacokinetic evaluation (n=4 per timepoint). In all other studies, 60 min time-point was chosen. Selected tissues (Blood, Skin, Muscle, Bone, Salivary glands, Tumor, Lungs, Heart, Liver, Pancreas, Spleen, Kidneys, Bladder, Testicles) were collected, weighed, counted, and their %IA/g values calculated as described previously (PMID: 37793856). For EV pharmacodynamics studies, fewer organs were harvested to accommodate more number of mice.
Male NSG mice were implanted subcutaneously with HT1376 and SCaBER cells (4 million each) on the right and left rostral end, respectively. On day 25 after cell inoculation (average tumor volume=200±35 mm^3), mice were randomized and treated with a single dose of either saline or 20 mpk EV ADC injected intravenously (volume not exceeding 300 μL) or with 200 μL saline (n=7/group). 24 hours following the EV dose, [^68Ga]AJ647 PET scans (n=2/group) were acquired and ex vivo biodistribution (n=5/group) was performed using the protocols mentioned above.

The subject of another assay is HT1376 tumors. Put plainly: EV therapy response and PET target engagement, HT1376 xenografts. It counts as in vivo, mouse. The method, then: Mice with tumor volume of ~100-150 mm^3 were injected with ~[…] (7.4 MBq) of [^68Ga]AJ647 in […] of 5% ethanol in saline intravenously and anesthetized under 2.5% isoflurane. PET-CT images were acquired at 60 minutes after radiotracer injection at 5 min/bed in an ARGUS small-animal PET/CT scanner (Sedecal, Madrid, Spain) as described (n=3 unless otherwise noted). PET-MR images were acquired on a simultaneous 7T Bruker PET-MR scanner. Dynamic imaging was conducted to evaluate pharmacokinetics of [^68Ga]AJ647. [^68Ga]AJ647 was injected (with help of catheter) after mice was anesthetized under 2.5% isoflurane on the equipment bed. All PET data were reconstructed using the two-dimensional ordered subsets-expectation maximization algorithm (2D-OSEM) and corrected for radioactive decay and dead time. The SUV values were calculated by finding percent of injected activity (%IA) based on a calibration factor obtained from a known radioactive quantity, then normalizing by mice weight. […] For change in accessible Nectin-4 levels following EV treatment, ΔSUV was calculated by subtracting baseline (pre-treatment) uptake from post-therapy uptake of [^68Ga]AJ647. Target engagement was quantified by normalizing this change by initial SUV in same subject controls. […] Mice body weight and tumor measurements were recorded until saline group tumors reached 1500 mm^3 average size. […] Briefly, the percentage change in volume relative to baseline: % tumor volume change (ΔVolt) = 100% × ((Vt -[…]). BestResponse was the lowest ΔVolt for t ≥ 10 days. For each time t, the average ΔVolt from t = 0 to t was calculated, with the BestAvgResponse defined as the lowest average ΔVolt for t ≥ 10 days. Modified response criteria (mRECIST), adapted from RECIST21, were as follows: mCR (BestResponse < -95%, BestAvgResponse < -40%), mPR (BestResponse < -50%, BestAvgResponse < -20%), mSD (BestResponse < 35%, BestAvgResponse < 30%), and mPD (all others). We defined mPD as non-responders (0 response) and stable disease or better as responders (1 response). […]

enfortumab vedotin [EV]: the “reduction in [^68Ga]AJ647 uptake in EV-treated tumors compared to controls” value with Nectin-4 is reported as 72%. Moreover, the “share of mice with less than 50% target engagement” value in the assay with HT1376 tumors (EV 6 and 15 mg/kg groups, day 6 PET) was 50%. Besides, the “responders (mRECIST, stable disease or better)” value is 7/8 with HT1376 tumors (EV-treated mice with higher target engagement, irrespective of dose) and 0/12 in the assay on HT1376 tumors (EV-treated mice with less than 30% target engagement).
